The text below walks through data of patent publication US20250074890A1, “CYANOPYRIDINE AND CYANOPYRIMIDINE BCL6 DEGRADERS” (DANA-FARBER CANCER INSTITUTE, INC., priority 2021, published 2025).

This test has as its target T1, BCL6 (Homo sapiens, UniProt P41182).
T1 construct: Endogenous BCL6 was tagged with the 11-amino acid SmBiT through CRISPR/Cas9 gene editing; endogenous in cells; host or cells: Su-DHL-4 (CRISPR/Cas9 knock-in, single cell clone)
Put plainly: HiBiT cellular degradation assay in Su-DHL-4 cells. The format is cell-based. Particulars: concentration to reach 50% degradation of endogenous SmBiT-tagged BCL6, 24 hours of compound treatment. Here is the method: DC50 (concentration to reach 50% degradation) values were determined from a cellular degradation assay (HiBiT, Promega™) in Su-DHL-4 cells (Table 1). Endogenous BCL6 was tagged with the 11-amino acid SmBiT through CRISPR/Cas9 gene editing and single cell clone selection. After 24 hours of compound treatment, cells were lysed and incubated with LgBiT protein to reconstitute intact nanoluciferase. Substrate was then added and relative luciferase units were measured. Degradation levels for each treatment were taken as a percentage compared to the control, 100% DMSO (Prism).
`CNC(=O)COc1cc2cc(Nc3nc(N4C[C@@H](C)C(F)[C@@H](C)C4)c(C#N)cc3Cl)ccc2n(CCN(C)C)c1=O` (stereo partly drawn) [Compound 77, 2-((6-((3-Chloro-5-cyano-6-((3R,4R,5S)-4-fluoro-3,5-dimethylpiperidin-1-yl)pyridin-2-yl)amino)-1-(2-(dimethylamino)ethyl)-2-oxo-1,2-dihydroquinolin-3-yl)oxy)-N-methylacetamide]: half-maximal degradation (DC50) was put at 4 nM. This lies in the single-digit nanomolar range.

In the case of `C[C@H]1CN(c2nc(Nc3ccc4c(c3)n(CCC(C)(C)O)c(=O)n4C)c(Cl)cc2C#N)C[C@@H](N)C1(F)F` (single isomer, unassigned) [Compound 49], the DC50 (in general, the concentration at which degradation of the target reaches its halfway point) was greater than 400 nM. Compound `C[C@@H]1CN(c2nc(Nc3ccc4c(c3)cc(OCC3(C)COC3)c(=O)n4C)c(Cl)cc2C#N)C[C@H](C)C1(F)F` [Compound 9, 5-Chloro-2-((3R,5S)-4,4-difluoro-3,5-dimethylpiperidin-1-yl)-6-((1-methyl-3-((3-methyloxetan-3-yl)methoxy)-2-oxo-1,2-dihydroquinolin-6-yl)amino)nicotinonitrile] registered a DC50 greater than 400 nM.

In the case of `CNC(=O)COc1cc2cc(Nc3nc(N4C[C@@H](C)[C@@H](F)[C@@H](C)C4)c(C#N)cc3Cl)ccc2n(CCN(C)C)c1=O` [Compound 72, 2-((6-((3-Chloro-5-cyano-6-((3S,4S,5R)-4-fluoro-3,5-dimethylpiperidin-1-yl)pyridin-2-yl)amino)-1-(2-(dimethylamino)ethyl)-2-oxo-1,2-dihydroquinolin-3-yl)oxy)-N-methylacetamide], the DC50 came out at 2 nM. In turn, `CNC(=O)COc1cc2cc(Nc3nc(N4C[C@@H](C)C[C@@H](C(=O)O)C4)c(C#N)cc3Cl)ccc2n(C)c1=O` [Compound 78, (3R,5S)-1-(5-chloro-3-cyano-6-((1-methyl-3-(2-(methylamino)-2-oxoethoxy)-2-oxo-1,2-dihydroquinolin-6-yl)amino)pyridin-2-yl)-5-methylpiperidine-3-carboxylic acid] showed a half-maximal degradation concentration (DC50) greater than 400 nM.

With `CC(O)CCn1c(=O)n(C)c2ccc(Nc3nc(N4C[C@H](CCO)[C@@H](F)[C@H](C)C4)c(C#N)cc3F)cc21` (stereo partly drawn) [Compound 57, 5-fluoro-2-[(3S,4S,5R)-4-fluoro-3-(2-hydroxyethyl)-5-methyl-1-piperidyl]-6-[[3-(3-hydroxybutyl)-1-methyl-2-oxo-benzimidazol-5-yl]amino]pyridine-3-carbonitrile], the 50% degradation concentration (DC50) was greater than 400 nM.

`CNC(=O)COc1cc2cc(Nc3nc(N4C[C@@H](C)[C@@H](F)[C@@H](C)C4)c(C#N)cc3Cl)ccc2n(CCN)c1=O` [Compound 66, 2-((1-(2-Aminoethyl)-6-((3-chloro-5-cyano-6-((3S,4S,5R)-4-fluoro-3,5-dimethylpiperidin-1-yl)pyridin-2-yl)amino)-2-oxo-1,2-dihydroquinolin-3-yl)oxy)-N-methylacetamide]: the DC50 was found to be 6 nM. `CNC(=O)COc1cc2cc(Nc3nc(N4C[C@@H](CCO)C(F)(F)[C@@H](C)C4)c(C#N)cc3Cl)ccc2n(C)c1=O` [Compound 62, 2-((6-((3-chloro-5-cyano-6-((3R,5S)-4,4-difluoro-3-(2-hydroxyethyl)-5-methylpiperidin-1-yl)pyridin-2-yl)amino)-1-methyl-2-oxo-1,2-dihydroquinolin-3-yl)oxy)-N-methylacetamide] returned a DC50 of 8 nM.

The compound `CNC(=O)COc1cc2cc(Nc3nc(N4C[C@@H](C)[C@@H](O)[C@@H](C)C4)c(C#N)cc3Cl)ccc2n(CCN(C)C)c1=O` [Compound 73, 2-((6-((3-chloro-5-cyano-6-((3S,4S,5R)-4-hydroxy-3,5-dimethylpiperidin-1-yl)pyridin-2-yl)amino)-1-(2-(dimethylamino)ethyl)-2-oxo-1,2-dihydroquinolin-3-yl)oxy)-N-methylacetamide] displayed a half-maximal degradation concentration (DC50) of 9 nM. Consider `C[C@@H]1C[C@H](N)CN(c2nc(Nc3ccc4c(c3)n(CCC(C)(C)O)c(=O)n4C)c(Cl)cc2C#N)C1` [Compound 36, 2-((3S,5R)-3-amino-5-methylpiperidin-1-yl)-5-chloro-6-((3-(3-hydroxy-3-methylbutyl)-1-methyl-2-oxo-2,3-dihydro-1H-benzo[d]imidazol-5-yl)amino)nicotinonitrile], for which the 50% degradation concentration (DC50) is greater than 400 nM. For `C[C@H]1CN(c2nc(Nc3ccc4c(c3)n(C[C@@H]3CNC(=O)O3)c(=O)n4C)c(F)cc2C#N)C[C@@H](N)C1(F)F` [Compound 85, 2-[(3R,5S)-3-amino-4,4-difluoro-5-methyl-1-piperidyl]-5-fluoro-6-[[1-methyl-2-oxo-3-[[(5S)-2-oxooxazolidin-5-yl]methyl]benzimidazol-5-yl]amino]pyridine-3-carbonitrile] the value was greater than 400 nM; for `C[C@@H]1CN(c2nc(Nc3ccc4c(c3)n(C[C@@H]3COC(=O)N3)c(=O)n4C)c(F)cc2C#N)C[C@H](C)[C@@H]1F` [Compound 88, 5-Fluoro-2-((3S,4S,5R)-4-fluoro-3,5-dimethylpiperidin-1-yl)-6-((1-methyl-2-oxo-3-(((R)-2-oxooxazolidin-4-yl)methyl)-2,3-dihydro-1H-benzo[d]imidazol-5-yl)amino)nicotinonitrile], 80 nM.

`C[C@@H]1CN(c2nc(Nc3ccc4c(c3)cc(OC[C@H]3CNCCO3)c(=O)n4C)c(Cl)cc2C#N)C[C@H](C)[C@@H]1F` [Compound 71, 5-Chloro-2-((3S,4S,5R)-4-fluoro-3,5-dimethylpiperidin-1-yl)-6-((1-methyl-3-((R)-morpholin-2-ylmethoxy)-2-oxo-1,2-dihydroquinolin-6-yl)amino)nicotinonitrile]: the DC50 is greater than 400 nM. Regarding `CNC(=O)COc1cc2cc(Nc3nc(N4C[C@@H](N)C(F)(F)[C@@H](C)C4)c(C#N)cc3Cl)ccc2n(CC2COC2)c1=O` (single isomer, unassigned) [Compound 42], the DC50 came out at 71 nM. This lies in the double-digit nanomolar range.

`C[C@@H]1CN(c2nc(Nc3ccc4c(c3)n(C[C@@H]3CNC(=O)O3)c(=O)n4C)c(F)cc2C#N)C[C@H](C)[C@@H]1F` [Compound 87, 5-Fluoro-2-[(3S,4S,5R)-4-fluoro-3,5-dimethyl-1-piperidyl]-6-[[1-methyl-2-oxo-3-[[(5S)-2-oxooxazolidin-5-yl]methyl]benzimidazol-5-yl]amino]pyridine-3-carbonitrile] had a half-maximal degradation concentration (DC50) of 101 nM. The compound `CNC(=O)COc1cc2cc(Nc3nc(N4C[C@H](CCO)C(F)(F)[C@H](C)C4)c(C#N)cc3Cl)ccc2n(C)c1=O` [Compound 63, 2-((6-((3-chloro-5-cyano-6-((3S,5R)-4,4-difluoro-3-(2-hydroxyethyl)-5-methylpiperidin-1-yl)pyridin-2-yl)amino)-1-methyl-2-oxo-1,2-dihydroquinolin-3-yl)oxy)-N-methylacetamide] displayed a 50% degradation concentration (DC50) of 39 nM. For `CNC(=O)COc1cc2cc(Nc3nc(N4C[C@@H](C)C(F)(F)[C@@H](N)C4)c(C#N)cc3Cl)ccc2n(CC2COC2)c1=O` [Compound 41, 2-((6-((6-((3S,5R)-3-Amino-4,4-difluoro-5-methylpiperidin-1-yl)-3-chloro-5-cyanopyridin-2-yl)amino)-1-(oxetan-3-ylmethyl)-2-oxo-1,2-dihydroquinolin-3-yl)oxy)-N-methylacetamide] the value was 10 nM. With `CNC(=O)COc1cc2cc(Nc3nc(N4C[C@H](C)C[C@H](C(=O)O)C4)c(C#N)cc3Cl)ccc2n(C)c1=O` [Compound 79, (3S,5R)-1-(5-chloro-3-cyano-6-((1-methyl-3-(2-(methylamino)-2-oxoethoxy)-2-oxo-1,2-dihydroquinolin-6-yl)amino)pyridin-2-yl)-5-methylpiperidine-3-carboxylic acid], the half-maximal degradation concentration (DC50) is 12 nM.

In turn, `C[C@H]1C[C@@H](N)CN(c2nc(Nc3ccc4c(c3)n(CCC(C)(C)O)c(=O)n4C)c(Cl)cc2C#N)C1` [Compound 35, 2-((3R,5S)-3-Amino-5-methylpiperidin-1-yl)-5-chloro-6-((3-(3-hydroxy-3-methylbutyl)-1-methyl-2-oxo-2,3-dihydro-1H-benzo[d]imidazol-5-yl)amino)nicotinonitrile] came in with a 50% degradation concentration (DC50) greater than 400 nM. Compound `CNC(=O)COc1cc2cc(Nc3nc(N4C[C@@H](C)C(F)(F)[C@@H](C)C4)c(C#N)cc3Cl)ccc2n(CC2CNC2)c1=O` [Compound 65, 2-((1-(Azetidin-3-ylmethyl)-6-((3-chloro-5-cyano-6-((3R,5S)-4,4-difluoro-3,5-dimethylpiperidin-1-yl)pyridin-2-yl)amino)-2-oxo-1,2-dihydroquinolin-3-yl)oxy)-N-methylacetamide] returned a DC50 of 56 nM. In the case of `CNC(=O)COc1cc2cc(Nc3nc(N4C[C@@H](C)[C@@H](F)[C@@H](C)C4)c(C#N)cc3Cl)ccc2n(C)c1=O` [Compound 45, 2-((6-((3-Chloro-5-cyano-6-((3R,4S,5S)-4-fluoro-3,5-dimethylpiperidin-1-yl)pyridin-2-yl)amino)-1-methyl-2-oxo-1,2-dihydroquinolin-3-yl)oxy)-N-methylacetamide], half-maximal degradation (DC50) was put at 3 nM.

On to `CNC(=O)COc1cc2cc(Nc3nc(N4C[C@@H](C)C(F)(F)[C@@H](C)C4)c(C#N)cc3Cl)ccc2n(CC2COC2)c1=O` [Compound 7, 2-((6-((3-chloro-5-cyano-6-((3R,5S)-4,4-difluoro-3,5-dimethylpiperidin-1-yl)pyridin-2-yl)amino)-1-(oxetan-3-ylmethyl)-2-oxo-1,2-dihydroquinolin-3-yl)oxy)-N-methylacetamide], for which it took 5 nM to reach half-maximal degradation (DC50). Turning to `C[C@@H](O)Cn1c(=O)n(CCC(C)(C)O)c2cc(Nc3nc(N4C[C@@H](N)C(F)(F)[C@@H](C)C4)c(C#N)cc3F)ccc21` [Compound 91, 2-((3R,5S)-3-Amino-4,4-difluoro-5-methylpiperidin-1-yl)-5-fluoro-6-((3-(3-hydroxy-3-methylbutyl)-1-((R)-2-hydroxypropyl)-2-oxo-2,3-dihydro-1H-benzo[d]imidazol-5-yl)amino)nicotinonitrile], it took 118 nM to reach half-maximal degradation (DC50).
